What is called pIC50 is the negative decadic logarithm of the IC50, by convention in mol/L.

pIC50: −log10 of the molar value. Read-outs that look alike come from different tables or passages of the source. Where only a bound is given, the exact number is not on record here.

In US9656988B2 (Pharmacyclics LLC, priority 2013, dated 2017) one finds IC50 data, which are given here for eleven compounds.

The target of the test is BTK (Homo sapiens (Human), UniProt Q06187). Briefly: Btk in vitro inhibitory activity (one of Method A TR-FRET, Method B electrophoretic mobility shift, Method C radiometric filter binding). It is filed as biochemical. Background: Mobility shift assays separate free from complexed probe on a gel.
The mark [1] stands for this setting: determined using one of the methods of Example 355a, 355b and 355c, read-out: BTK IC50.

BTK, sequence (Q06187 whole entry): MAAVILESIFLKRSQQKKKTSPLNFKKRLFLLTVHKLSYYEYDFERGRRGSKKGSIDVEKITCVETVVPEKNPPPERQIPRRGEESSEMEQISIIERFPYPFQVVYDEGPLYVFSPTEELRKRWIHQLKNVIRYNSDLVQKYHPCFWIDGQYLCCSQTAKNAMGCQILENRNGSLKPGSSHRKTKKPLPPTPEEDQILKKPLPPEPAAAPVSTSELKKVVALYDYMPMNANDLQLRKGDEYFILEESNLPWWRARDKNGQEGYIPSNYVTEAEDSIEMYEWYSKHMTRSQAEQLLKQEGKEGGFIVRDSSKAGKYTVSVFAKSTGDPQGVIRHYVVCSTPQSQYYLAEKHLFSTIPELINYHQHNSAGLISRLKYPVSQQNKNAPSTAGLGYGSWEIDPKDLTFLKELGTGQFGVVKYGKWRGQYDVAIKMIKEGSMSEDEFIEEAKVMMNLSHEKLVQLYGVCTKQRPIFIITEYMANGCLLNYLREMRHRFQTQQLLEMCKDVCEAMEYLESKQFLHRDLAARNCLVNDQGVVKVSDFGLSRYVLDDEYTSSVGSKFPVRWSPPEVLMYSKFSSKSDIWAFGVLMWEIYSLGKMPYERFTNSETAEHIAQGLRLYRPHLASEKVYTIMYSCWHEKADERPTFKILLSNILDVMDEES

For the compound `CN(C)C(=O)N[C@@H]1CCCN(c2cnc(C(N)=O)c(Nc3ccc(C4CCN(C(=O)N(C)C)CC4)cc3)n2)C1` [Example 170, (R)-3-(4-(1-(dimethylcarbamoyl)piperidin-4-yl)phenylamino)-5-(3-(3,3-dimethylureido)piperidin-1-yl)pyrazine-2-carboxamide], the pIC50 under setting [1] was over 8.00 and the pIC50 (read-out: Btk (IC50)) was over 8.00.
As for `CN(C(=O)N[C@@H]1CCCN(c2cnc(C(N)=O)c(NC3CC3)n2)C1)c1ccccc1` [Example 350, (R)-3-(cyclopropylamino)-5-(3-(3-methyl-3-phenylureido)piperidin-1-yl)pyrazine-2-carboxamide], the pIC50 under setting [1] was 5.00 to 6.00.
As for `C[C@@H]1[C@H](NC(=O)N(C)C)CCCN1c1cnc(C(N)=O)c(Nc2ccc(C3(C)CCN(C4CC4)CC3)cc2)n1` [Example 247, 3-(4-(1-cyclopropyl-4-methylpiperidin-4-yl)phenylamino)-5-((2R,3R)-3-(3,3-dimethylureido)-2-methylpiperidin-1-yl)pyrazine-2-carboxamide], the pIC50 reads like this: under setting [1], over 8.00; (read-out: Btk (IC50)) over 8.00.
Consider `NC(=O)c1ncc(N2CCC[C@@H](NC(=O)c3cc4c(s3)CCCC4)C2)nc1Nc1ccc(C2CCN(C3CC3)CC2)cc1` [Example 316, (R)-3-(4-(1-cyclopropylpiperidin-4-yl)phenylamino)-5-(3-(4,5,6,7-tetrahydrobenzo[b]thiophene-2-carboxamido)piperidin-1-yl)pyrazine-2-carboxamide], for which the pIC50 under setting [1] was over 8.00.
Regarding `C[C@@H]1[C@H](NC(=O)N(C)C)CCCN1c1cnc(C(N)=O)c(Nc2ccc(S(C)(=O)=O)cc2)n1` [Example 244, 5-((2R,3R)-3-(3,3-dimethylureido)-2-methylpiperidin-1-yl)-3-(4-(methylsulfonyl)phenylamino)pyrazine-2-carboxamide], under setting [1], the negative logarithm of the IC50 (pIC50) was over 8.00.
`COc1ccc(C(=O)N[C@@H]2CCCN(c3cnc(C(N)=O)c(Nc4ccc(N5CCC(C(=O)N(C)C)CC5)cc4)n3)C2)cc1` [Example 144, (R)-3-(4-(4-(dimethylcarbamoyl)piperidin-1-yl)phenylamino)-5-(3-(4-methoxybenzamido)piperidin-1-yl)pyrazine-2-carboxamide]: the pIC50 was over 8.00 (Btk (IC50)) and over 8.00 under setting [1].
On to `NC(=O)c1nnc(N2CC[C@@H](NC(=O)C(F)(F)F)C2)nc1Nc1ccc(C(=O)N2CCOCC2)cc1` [Example 51, (R)-5-(4-(morpholine-4-carbonyl)phenylamino)-3-(3-(2,2,2-trifluoroacetamido)pyrrolidin-1-yl)-1,2,4-triazine-6-carboxamide], for which the pIC50 under setting [1] is 6.00 to 7.00.
`COc1cc(Nc2nc(N3CCC[C@@H](NC(=O)N(C)C)C3)cnc2C(N)=O)ccc1C` [Example 183, (R)-5-(3-(3,3-dimethylureido)piperidin-1-yl)-3-(3-methoxy-4-methylphenylamino)pyrazine-2-carboxamide]: the pIC50 was 6.00 to 7.00. The negative logarithm of the IC50 (pIC50) under setting [1] is 6.00 to 7.00.
In the case of `NC(=O)c1nnc(N2CCC[C@@H](NC(=O)N3CCCCC3)C2)nc1Nc1ccc2cccnc2c1` [Example 109, (R)-3-(3-(piperidine-1-carboxamido)piperidin-1-yl)-5-(quinolin-7-ylamino)-1,2,4-triazine-6-carboxamide], the pIC50 under setting [1] is 6.00 to 7.00.
The same measure, in the same setting: as for `CN(C)C/C=C/C(=O)N1CCC[C@@H](Nc2nnc(C(N)=O)c(Nc3ccc(S(C)(=O)=O)cc3)n2)C1` [Example 106, (R,E)-3-(1-(4-(dimethylamino)but-2-enoyl)piperidin-3-ylamino)-5-(4-(methylsulfonyl)phenylamino)-1,2,4-triazine-6-carboxamide], the figure is over 8.00.
As to `NC(=O)c1nnc(N2CCC[C@@H](NC(=O)c3ccc(OCC(F)(F)F)cc3)C2)nc1Nc1ccc(C(=O)N2CCOCC2)cc1` [Example 86, (R)-5-(4-(morpholine-4-carbonyl)phenylamino)-3-(3-(4-(2,2,2-trifluoroethoxy)benzamido)piperidin-1-yl)-1,2,4-triazine-6-carboxamide], under “read-out: Btk (IC50)”, the pIC50 is over 8.00.
